The source of these data is US10807960B2, “Compounds, compositions, and methods for controlling biofilms” (KATHOLIEKE UNIVERSITEIT LEUVEN, priority 2015, dated 2020).

Data set [1] relates to osteoblasts (OB). Kind of data set: osteogenic differentiation, calcium and DNA assay. Format: cell-based, human. The following applies: 12.5 μM, calcium content normalized by DNA, versus solvent control. As for the experimental part:
(§1) The effect on osteogenic differentiation potential was assessed as previously described. Only the substances that allowed survival of the cells for more than 3 weeks, which is the time needed for mature osteogenic differentiation, were tested. Briefly, osteoblasts and bone-marrow derived mesenchymal stem cells were cultured in a positive solvent control (osteogenic medium with 0.5% DMSO or ethanol background), a negative control (medium without osteogenic supplements) and treated samples (osteogenic medium, 0.5% DMSO or ethanol background and 12.5 μM of test compound) with four repeats per condition. Mesenchymal stem cells and osteoblast cell cultures were harvested after 3 or 5 weeks, respectively, for the calcium and DNA assay.
(§2) Calcium deposition of osteoblasts and mesenchymal stem cells was measured with the Calcium CPC LiquiColor test (Stanbio Laboratory, Boerne, Tex.) as previously described. Briefly, cell cultures were extracted with 5% trichloroacetic acid (500 μl per sample), O-cresolphtalein complex was added, and the calcium content was determined spectrophotometrically at 550 nm. DNA content was determined as previously described. DNA values were used to normalize the calcium content. Four wells per condition were examined, and two samples from each well were taken for each assay.

Data set [2] has as its system bone-marrow derived mesenchymal stem cells (MSC). Kind of data set: osteogenic differentiation, calcium and DNA assay. Format: cell-based, human. As to conditions: 12.5 μM, calcium content normalized by DNA, versus solvent control. As for the experimental part: as §1, §2
In data set [3] the test system is osteoblasts (OB). Kind of data set: mammalian-cell viability assay, trypan blue staining. The following applies: 12.5 μM; for proliferation (in words): 6 days exposure. Format: cell-based. Here is the method:
(§3) Cell viability of two human primary cell types, namely, osteoblasts (OB) and bone-marrow derived mesenchymal stem cells (MSC) was tested according to the ISO 10993-5 standard, as previously described. Briefly, cells were seeded in 96-well tissue culture test plates (TPP, Switzerland) at 5×10^3 cells/cm^2 in Advanced DMEM cell culture media supplemented with 10% serum, 1× GlutaMAX, 0.05 mg/mL Gentamycin, and were allowed to attach overnight. The next day, the cells were exposed to (i) cell culture medium and medium with the corresponding control (0.5% ethanol or DMSO) (negative controls), (ii) medium with 0.05% phenol (cytotoxic control), and (iii) medium with compounds (12.5 μM) and incubated for 2 h, 48 h and 6 days (8 repeats for each condition). At each time-point the numbers of viable and dead cells were determined directly by trypan blue staining, and indirectly by measuring the metabolic activity with MTT (3-(4,5-dimethylthiazol-2-yl)-2,5-diphenyltetrazolium bromide) staining.
(§4) The medium was removed from the wells, and 1/3 trypan blue in Dulbecco's modified Eagle's medium (DMEM) was added to the cells, incubated for 3 min, after which trypan blue was removed and DMEM medium was added to the wells. In each of four wells, two microscopy fields were counted for viable (transparent) and dead (blue) cells.

The test system of data set [4] is bone-marrow derived mesenchymal stem cells (MSC). The description is as above. Format: cell-based. As to conditions: 12.5 μM, 6 days exposure. Here is the method: as §3, §4
Data set [5] deals with osteoblasts (OB). Description: metabolic activity, MTT staining. Format: cell-based. As to conditions: 12.5 μM, 6 days treatment. Here is the method:
as §3
(§5) The medium was removed from the wells and 100 μl of medium, supplemented with 10% serum and 0.5 mg/mL MTT was added to the cells. The cells were incubated overnight at 37° C. and 5% CO2. The next day the medium with MTT was removed and 100 μl acidic isopropanol was added. The cells were then centrifuged at 2300 g and 50 μl of the supernatant was transferred to a new 96-well plate. The absorbance was measured at 570 nm and the background was measured at 660 nm. Four wells per condition were examined.

In data set [6] the test system is bone-marrow derived mesenchymal stem cells (MSC). Description: metabolic activity, MTT staining. Format: cell-based. As to conditions: 12.5 μM, 6 days treatment. Here is the method: as §3, §5
Data set [7] relates to C. albicans SC5314 + S. epidermidis. Description: mixed C. albicans/S. epidermidis biofilm assay, selective plating. The following applies: for activity at 25 µM: 25 μM (Table 5); for activity at 100 µM: 100 μM (Table 5). Format: cell-based, Candida albicans; Staphylococcus epidermidis. Here is the method:
The concentrations 25 μM (0.0625% DMSO or ethanol) and 100 μM (0.25% DMSO or ethanol) were tested. After 24 h of incubation at 37° C., biofilms were washed with PBS and fresh medium with or without compounds was added. After further incubation for 48 h at 37° C., the biofilms were washed with PBS after which the cells were re-suspended in 100 μl of PBS by scraping off, sonication (1 min, 45 kHz, USC300-T; VWR, Radnor, Pa., USA) and vigorously pipetting up-and-down. Finally, the biofilm cells were diluted in PBS and plated on YPD agar plates containing 100 mg/L ampicillin and TSA plates containing 25 mg/L amphotericin B, to determine the number of fungal and bacterial CFUs after 2 days of incubation at 37° C., respectively. The percentage of C. albicans SC5314 and S. epidermidis cells was determined relative to the DMSO or ethanol control treatment.

In data set [8] the test system is C. albicans SC5314. Description: inhibition of C. albicans biofilms, cell titer blue (CTB) quantification. Format: cell-based, Candida albicans. As to conditions: monospecies biofilm; novel compounds: highest concentration tested 100 μM. Here is the method: The potential of the compounds to prevent C. albicans SC5314 biofilm formation was assessed using the cell titer blue (CTB) quantification method (26). For the CTB method, an overnight culture of C. albicans SC5314 was washed with PBS and a cell suspension of 10^6 cells/ml (OD600=0.1) was prepared in RPMI 1640 medium (pH 7.0). […] After 16 h of static incubation at 37° C., biofilms were washed and quantified with CTB as described previously.
Background: Alamar Blue is a resazurin reagent that responds to reducing activity.

[9] abbreviates: C. albicans in mixed biofilm with S. epidermidis, read-out: CFUs % survival C.a.
[10] abbreviates: S. epidermidis in mixed biofilm with C. albicans, read-out: CFUs % survival S.c.
The mark [11] stands for this setting: S. epidermidis in mixed biofilm with C. albicans, read-out: CFUs % survival Se.

SMILES strings stand for the structures. Where two headings read alike, the source gives them in different places.

Turning to `CCCCCCCCn1c(-c2ccc(Br)cc2)cnc1NC1CCCC1` [Compound 8g, 5-(4-bromophenyl)-N-cyclopentyl-1-octyl-1H-imidazol-2-amine], the “calcium deposition (in words)” value in data set [1] and in data set [2] was “induced the calcium deposition” in each case. Moreover, the “proliferation (in words)” value is listed as “increase in proliferation” in data set [3] and “slightly reduced” in data set [4]. Moreover, the “metabolic activity compared to the solvent control (in words)” value in data set [5] and in data set [6] was “increased” throughout. Further, the activity at 25 µM in data set [7] (setting [9]) was determined as 3.3%; in data set [7] (setting [10]), 0%. The activity at 100 µM came out at 5.9% in data set [7] (setting [9]) and 0% in data set [7] (setting [11]).

For `CCCCCCCCn1c(-c2ccc(Br)cc2)cnc1NCC(C)C` [Compound 8c, 5-(4-bromophenyl)-N-isobutyl-1-octyl-1H-imidazol-2-amine], the “calcium deposition (in words)” value in data set [1] and in data set [2] was “induced the calcium deposition” throughout. The “proliferation (in words)” value in data set [3] is “increase in proliferation”. For the same molecule, the “cell viability (in words)” value in data set [3] (6 days of exposure, trypan blue) is “very slightly reduced viability”. Further, the “metabolic activity compared to the solvent control (in words)” value in data set [5] and in data set [6] was “increased” throughout. For the same molecule, the “anti-biofilm activity (in words)” value in data set [8] is “not active”. Besides, the “effect on the C. albicans/S. epidermidis mixture (in words)” value in data set [7] was “only reduced C. albicans”. Besides, the activity at 25 µM in data set [7] (setting [9]) amounted to 3.2%. Besides, the activity at 100 µM in data set [7] (setting [9]) worked out at 8.4%.

Consider `CCCCCCCCn1c(-c2ccc(Cl)c(Cl)c2)cnc1NCC(C)C` [Compound 8d, 5-(3,4-dichlorophenyl)-N-isobutyl-1-octyl-1H-imidazol-2-amine], for which the “calcium deposition (in words)” value in data set [1] and in data set [2] was “none of the compounds negatively affected the calcium deposition” each time. For the same molecule, the “proliferation (in words)” value in data set [3] and in data set [4] was “increase in proliferation” in each case. Further, the “metabolic activity compared to the solvent control (in words)” value in data set [5] and in data set [6] was “increased” throughout. In addition, the “anti-biofilm activity (in words)” value in data set [8] is recorded as “not active”. In data set [7], the “effect on the C. albicans/S. epidermidis mixture (in words)” value was “only reduced C. albicans”. For the same molecule, the activity at 25 µM in data set [7] (setting [9]) came out at 2.5%. Also, in data set [7] (setting [9]), the activity at 100 µM is 1.4%.

Consider `CCCCCCCCn1c(-c2ccc(Cl)c(Cl)c2)cnc1NC1CCCC1` [Compound 8h, 5-(3,4-dichlorophenyl)-N-cyclopentyl-1-octyl-1H-imidazol-2-amine], for which the “calcium deposition (in words)” value in data set [1] and in data set [2] was “induced the calcium deposition” throughout. Besides, in data set [3], the “proliferation (in words)” value is listed as “increase in proliferation”. Also, the “metabolic activity compared to the solvent control (in words)” value in data set [5] and in data set [6] was “increased” each time. Moreover, the “anti-biofilm activity (in words)” value in data set [8] was “not active”. The activity at 25 µM in data set [7] (setting [9]) was 6.7%; in data set [7] (setting [10]) it was 2%. For the same molecule, the activity at 100 µM in data set [7] (setting [9]) was 3.5%; in data set [7] (setting [11]), 2.2%.
